The target of assay [1] is T1, human ALDH9A1 (HsALDH9A1) (Homo sapiens, UniProt P49189).
T1 construct: full-length 494-residue protein, His-tag kept (pCDFDuet, BamHI/XhoI), recombinant from E. coli; silent polymorphism at Ile110 codon
Put plainly: NADH formation at […] nm, partial substrate inhibition fit. The class given is biochemical. The conditions noted are these: substrate inhibition constant; 1 mM NAD+, 150 mM sodium pyrophosphate pH 7.5, 30 °C.

Assay [2] deals with T1, human ALDH9A1 (HsALDH9A1). Put plainly: microscale thermophoresis, RED-tris-NTA labelled His-tagged enzyme. The class given is binding. The source says: microscale thermophoresis, RED-tris-NTA labelled His-tagged enzyme on human ALDH9A1 (HsALDH9A1)
Assay [3] deals with T1, human ALDH9A1 (HsALDH9A1). Put plainly: nanoDSF (Tycho NT.[…]). The class given is binding. The following applies: 150 mM Tris/HCl pH 7.5, apoenzyme reference 69.5 °C. On the technique in general: In DSF a fluorescence change marks the thermal transition of the protein.
In assay [4] the target is T1, human ALDH9A1 (HsALDH9A1). Put plainly: microscale thermophoresis. The class given is binding.

T1 sequence (P49189 whole entry): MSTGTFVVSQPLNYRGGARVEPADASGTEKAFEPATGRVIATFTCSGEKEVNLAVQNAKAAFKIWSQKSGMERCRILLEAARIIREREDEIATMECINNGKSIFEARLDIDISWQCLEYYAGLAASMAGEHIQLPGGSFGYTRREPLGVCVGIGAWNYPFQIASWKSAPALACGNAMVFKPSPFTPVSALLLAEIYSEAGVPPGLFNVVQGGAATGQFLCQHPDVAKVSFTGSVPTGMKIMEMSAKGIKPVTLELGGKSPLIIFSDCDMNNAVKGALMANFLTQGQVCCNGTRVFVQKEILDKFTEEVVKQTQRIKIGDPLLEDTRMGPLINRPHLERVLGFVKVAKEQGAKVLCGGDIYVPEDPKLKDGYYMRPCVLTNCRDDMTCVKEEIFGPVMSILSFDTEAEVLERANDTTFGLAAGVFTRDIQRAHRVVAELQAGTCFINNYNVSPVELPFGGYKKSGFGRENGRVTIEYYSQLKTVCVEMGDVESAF

`CN(C)CCCC=O` [DMABAL]: in assay [1], the “Ki” value worked out at 10880 ± 1350 µM.
The term Kd denotes the free concentration of one partner at which half of the binding sites on the other are occupied at equilibrium, for simple one-to-one binding. Read a high Kd as a looser complex. As a reminder, the Tm is the temperature at which the thermal transition is half complete. As for `C[N+](C)(C)CCCC=O` [TMABAL, 4-(trimethylamino)butyraldehyde], in assay [1], the “Ki” value was determined as 2200 ± 590 µM. The molecule further registered an equilibrium dissociation constant (Kd) in assay [2] of 6 ± 3 µM. The Tm in assay [3] (5 mM ligand) was 63 °C.
`N=C(N)NCCCC=O` [GBAL]: the “Ki” value in assay [1] was determined as 7230 ± 1650 µM.
Molecule `NC(=O)c1ccc[n+]([C@@H]2O[C@H](COP(=O)([O-])OP(=O)(O)OC[C@H]3O[C@@H](n4cnc5c(N)ncnc54)[C@H](O)[C@@H]3O)[C@@H](O)[C@H]2O)c1` [NAD^+] displayed a Kd in assay [2] of 16 ± 3 µM. In addition, in assay [3] (5 mM ligand), the melting temperature (Tm) came to 69.5 °C.
`C[N+](C)(C)CCCC(=O)[O-]` [TMABA] displayed a Kd in assay [4] of 2600 ± 200 µM. Further, the Tm in assay [3] (10 mM ligand) amounted to 66 °C.
With `C[N+](C)(C)CC=O` [BAL], the Kd in assay [2] amounted to 171 ± 35 µM.
Consider `C[N+](C)(C)CCC=O` [TMAPAL, 3-(trimethylamino)propionaldehyde], for which, in assay [1], the “Ki” value is 470 ± 45 µM.
